Measurements as given in patent US20220370440A1 (Lead Discovery Center GmbH, priority 2018, published 2022).

Tests used:
[1] = test system: H1975; assay: H1975 CellTiter-Glo; format: cell-based; details: Homo sapiens, NCI-H1975; 72 h compound incubation; read-out: H1975 CTG IC50
Procedure, shortened: (§1)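 Seed cells; incubate 24 h at 37° C., 5% CO2; add compound in DMSO over a concentration range; incubate 72 h; add CellTiter-Glo reagent, stabilise 10 min at room temperature; read luminescence; fit IC50.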

[2] = test system: A431; assay: A431 CellTiter-Glo; format: cell-based; details: Homo sapiens, A-431; 72 h compound incubation; read-out: A431 CTG IC50
Procedure, shortened: as §1

[3] = target: EGFR T790ML858R (Homo sapiens, UniProt P00533, L858R/T790M); assay: EGFR T790ML858R Lance assay; format: biochemical
Description: (§2) Inhibition is indicated as […] [nM] (“−”=not measured). Compounds having an activity designated as “A” provided an IC50≤100 nM; compounds having an activity designated as “B” provided an 100 nM<IC50≤500 nM; compounds having an activity designated as “C” provided an 500 nM<IC50≤1000 nM; compounds having an activity designated as “D” provided an 1000 nM<IC50≤100000 nM; and compounds having an activity designated as “E” provided an IC50>10000 nM.

[4] = target: T1, HER2 INS YVMA (Homo sapiens, UniProt P04626, INS775YVMA); assay: Lance Kinase Activity Assay, HER2 INS YVMA (Her2 Exon 20 INSYVMA Lance); format: biochemical; details: biochemical Lance assay
T1 construct: purchased DPF
Procedure, shortened: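 IC50 was fitted to sigmoidal curves of TR-FRET signal (665 and 615 nm emission after 340 nm excitation) from an Eu anti-phospho antibody binding the phosphorylated ULight peptide. The ATP-started reaction ran 1 h at RT and was then quenched with 10 mM EDTA plus antibody for a further 1 h. Compounds were tested as 8-point, 3-fold dilutions.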

[5] = target: EGFR wt (Homo sapiens, UniProt P00533); assay: EGFR wt Lance assay; format: biochemical
Description: as §2

[6] = target: EGFR Exon 20 INSNPH Ba/F3 (Homo sapiens, UniProt P00533, DUP771-773, cells depend on it); assay: EGFR Exon 20 INSNPH Ba/F3 CellTiter-Glo; format: cell-based; details: CellTiter-Glo, 72 h, read-out: EGFR Exon 20 INSNPH Ba/F3 CTG IC50
Procedure, shortened: (§3)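 IC50 values, binned A (≤100 nM) through E (>10000 nM), come from luminescent ATP quantitation of viable mutant-driven Ba/F3 cells. Compound exposure lasted 72 h, starting 24 h post-seeding; DMSO and 10 μM staurosporine served as controls, Z′ ≥0.5 required.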

[7] = target: Her2 Exon 20 INSYVMA Ba/F3 (Homo sapiens, UniProt P04626, DUP772-775, cells depend on it); assay: Her2 Exon 20 INSYVMA Ba/F3 CellTiter-Glo; format: cell-based; details: CellTiter-Glo, 72 h, read-out: Her2 Exon 20 INSYVMA Ba/F3 CTG IC50
Procedure, shortened: as §3

Sequence of EGFR T790ML858R (P00533 25-1210 T790M/L858R): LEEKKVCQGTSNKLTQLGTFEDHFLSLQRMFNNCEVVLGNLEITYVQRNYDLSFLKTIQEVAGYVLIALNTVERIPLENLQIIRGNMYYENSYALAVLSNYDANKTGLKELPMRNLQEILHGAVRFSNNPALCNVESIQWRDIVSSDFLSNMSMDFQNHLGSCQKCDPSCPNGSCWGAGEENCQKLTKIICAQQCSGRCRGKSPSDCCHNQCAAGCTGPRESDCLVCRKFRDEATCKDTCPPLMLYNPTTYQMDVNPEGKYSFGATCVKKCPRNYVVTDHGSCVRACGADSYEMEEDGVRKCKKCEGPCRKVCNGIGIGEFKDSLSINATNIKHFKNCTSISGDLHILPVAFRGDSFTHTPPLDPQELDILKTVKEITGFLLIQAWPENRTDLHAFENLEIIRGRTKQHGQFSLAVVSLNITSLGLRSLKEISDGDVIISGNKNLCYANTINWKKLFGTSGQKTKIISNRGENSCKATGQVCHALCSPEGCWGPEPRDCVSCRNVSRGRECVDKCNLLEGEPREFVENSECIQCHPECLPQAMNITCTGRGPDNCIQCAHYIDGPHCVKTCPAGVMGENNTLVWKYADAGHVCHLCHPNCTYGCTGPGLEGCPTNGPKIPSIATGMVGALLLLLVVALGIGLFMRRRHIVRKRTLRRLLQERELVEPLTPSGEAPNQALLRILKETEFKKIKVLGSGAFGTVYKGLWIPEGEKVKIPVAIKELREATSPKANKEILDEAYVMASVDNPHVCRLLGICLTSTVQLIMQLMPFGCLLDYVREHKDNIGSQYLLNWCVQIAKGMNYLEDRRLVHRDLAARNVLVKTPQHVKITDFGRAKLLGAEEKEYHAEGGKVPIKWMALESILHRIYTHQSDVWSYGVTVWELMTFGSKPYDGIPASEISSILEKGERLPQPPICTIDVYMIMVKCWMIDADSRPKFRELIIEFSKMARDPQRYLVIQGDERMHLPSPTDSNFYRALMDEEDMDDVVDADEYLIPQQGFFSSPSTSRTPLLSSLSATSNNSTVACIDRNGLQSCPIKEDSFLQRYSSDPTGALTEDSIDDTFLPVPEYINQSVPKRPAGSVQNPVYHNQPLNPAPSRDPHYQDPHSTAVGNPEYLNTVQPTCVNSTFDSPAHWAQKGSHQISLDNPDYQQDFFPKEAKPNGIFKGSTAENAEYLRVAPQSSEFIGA
Sequence of Her2 Exon 20 INSYVMA Ba/F3 (P04626 with tags, fused parts or gaps DUP772-775): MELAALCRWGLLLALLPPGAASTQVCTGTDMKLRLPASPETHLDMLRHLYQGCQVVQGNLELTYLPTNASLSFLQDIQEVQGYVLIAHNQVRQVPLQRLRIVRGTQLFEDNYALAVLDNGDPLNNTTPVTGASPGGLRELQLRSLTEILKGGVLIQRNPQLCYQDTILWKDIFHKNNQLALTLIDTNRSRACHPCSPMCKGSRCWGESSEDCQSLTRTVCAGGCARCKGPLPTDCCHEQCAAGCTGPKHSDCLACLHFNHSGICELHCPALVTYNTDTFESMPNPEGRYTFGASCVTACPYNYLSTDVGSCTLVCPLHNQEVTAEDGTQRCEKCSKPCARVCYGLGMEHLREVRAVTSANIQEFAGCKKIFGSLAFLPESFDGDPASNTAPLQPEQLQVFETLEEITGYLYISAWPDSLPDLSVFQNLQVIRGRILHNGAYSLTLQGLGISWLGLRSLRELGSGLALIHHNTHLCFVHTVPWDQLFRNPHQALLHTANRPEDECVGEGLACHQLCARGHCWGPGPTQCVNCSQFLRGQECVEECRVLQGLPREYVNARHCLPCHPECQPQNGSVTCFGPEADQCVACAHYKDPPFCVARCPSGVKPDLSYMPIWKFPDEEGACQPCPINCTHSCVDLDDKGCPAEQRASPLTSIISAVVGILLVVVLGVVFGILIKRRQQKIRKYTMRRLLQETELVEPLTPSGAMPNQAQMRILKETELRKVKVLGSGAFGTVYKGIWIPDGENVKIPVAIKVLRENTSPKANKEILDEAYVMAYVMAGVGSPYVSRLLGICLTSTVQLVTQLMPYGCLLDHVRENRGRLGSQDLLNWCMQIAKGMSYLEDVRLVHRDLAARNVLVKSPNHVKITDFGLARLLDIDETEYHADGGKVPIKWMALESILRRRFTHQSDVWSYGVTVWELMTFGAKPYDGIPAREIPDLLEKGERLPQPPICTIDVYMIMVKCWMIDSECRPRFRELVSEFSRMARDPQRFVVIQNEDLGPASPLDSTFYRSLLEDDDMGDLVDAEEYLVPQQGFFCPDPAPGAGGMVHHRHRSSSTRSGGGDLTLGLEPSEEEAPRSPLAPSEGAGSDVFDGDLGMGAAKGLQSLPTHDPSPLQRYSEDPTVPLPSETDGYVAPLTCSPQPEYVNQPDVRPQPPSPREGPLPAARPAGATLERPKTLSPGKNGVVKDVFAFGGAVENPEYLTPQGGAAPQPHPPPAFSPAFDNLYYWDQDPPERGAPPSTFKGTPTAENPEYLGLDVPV
Sequence of EGFR Exon 20 INSNPH Ba/F3 (P00533 with tags, fused parts or gaps DUP771-773): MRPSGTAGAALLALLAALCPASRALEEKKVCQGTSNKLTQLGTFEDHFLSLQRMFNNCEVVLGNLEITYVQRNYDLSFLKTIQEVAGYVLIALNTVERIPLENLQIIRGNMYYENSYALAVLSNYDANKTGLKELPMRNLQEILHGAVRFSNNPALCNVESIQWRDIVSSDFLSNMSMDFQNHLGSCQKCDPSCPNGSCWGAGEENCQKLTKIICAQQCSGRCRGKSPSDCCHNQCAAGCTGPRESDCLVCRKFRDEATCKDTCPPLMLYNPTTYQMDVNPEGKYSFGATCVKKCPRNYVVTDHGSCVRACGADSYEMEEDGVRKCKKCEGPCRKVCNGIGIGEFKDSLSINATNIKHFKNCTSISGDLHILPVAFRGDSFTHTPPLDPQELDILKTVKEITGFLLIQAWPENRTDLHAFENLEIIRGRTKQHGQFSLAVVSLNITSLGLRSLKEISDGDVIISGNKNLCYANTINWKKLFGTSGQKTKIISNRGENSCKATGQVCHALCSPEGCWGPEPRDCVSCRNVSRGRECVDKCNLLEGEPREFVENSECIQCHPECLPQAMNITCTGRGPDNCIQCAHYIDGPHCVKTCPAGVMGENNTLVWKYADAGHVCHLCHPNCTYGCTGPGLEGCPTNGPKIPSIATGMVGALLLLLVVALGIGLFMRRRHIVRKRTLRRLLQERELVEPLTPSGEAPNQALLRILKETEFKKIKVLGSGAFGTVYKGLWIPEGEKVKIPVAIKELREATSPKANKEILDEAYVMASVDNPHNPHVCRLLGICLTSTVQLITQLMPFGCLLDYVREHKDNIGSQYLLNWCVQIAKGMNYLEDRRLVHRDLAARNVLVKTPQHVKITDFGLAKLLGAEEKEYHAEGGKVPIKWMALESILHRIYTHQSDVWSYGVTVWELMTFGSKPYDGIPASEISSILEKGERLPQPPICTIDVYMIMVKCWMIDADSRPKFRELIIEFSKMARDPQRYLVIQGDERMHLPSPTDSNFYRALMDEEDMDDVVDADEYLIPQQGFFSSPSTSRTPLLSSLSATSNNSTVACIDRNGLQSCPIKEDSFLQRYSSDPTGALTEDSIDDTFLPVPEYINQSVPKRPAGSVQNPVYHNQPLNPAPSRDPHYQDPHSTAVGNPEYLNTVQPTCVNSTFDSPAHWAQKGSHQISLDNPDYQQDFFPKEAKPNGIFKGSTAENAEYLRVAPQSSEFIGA
Sequence of EGFR wt (P00533 25-1210): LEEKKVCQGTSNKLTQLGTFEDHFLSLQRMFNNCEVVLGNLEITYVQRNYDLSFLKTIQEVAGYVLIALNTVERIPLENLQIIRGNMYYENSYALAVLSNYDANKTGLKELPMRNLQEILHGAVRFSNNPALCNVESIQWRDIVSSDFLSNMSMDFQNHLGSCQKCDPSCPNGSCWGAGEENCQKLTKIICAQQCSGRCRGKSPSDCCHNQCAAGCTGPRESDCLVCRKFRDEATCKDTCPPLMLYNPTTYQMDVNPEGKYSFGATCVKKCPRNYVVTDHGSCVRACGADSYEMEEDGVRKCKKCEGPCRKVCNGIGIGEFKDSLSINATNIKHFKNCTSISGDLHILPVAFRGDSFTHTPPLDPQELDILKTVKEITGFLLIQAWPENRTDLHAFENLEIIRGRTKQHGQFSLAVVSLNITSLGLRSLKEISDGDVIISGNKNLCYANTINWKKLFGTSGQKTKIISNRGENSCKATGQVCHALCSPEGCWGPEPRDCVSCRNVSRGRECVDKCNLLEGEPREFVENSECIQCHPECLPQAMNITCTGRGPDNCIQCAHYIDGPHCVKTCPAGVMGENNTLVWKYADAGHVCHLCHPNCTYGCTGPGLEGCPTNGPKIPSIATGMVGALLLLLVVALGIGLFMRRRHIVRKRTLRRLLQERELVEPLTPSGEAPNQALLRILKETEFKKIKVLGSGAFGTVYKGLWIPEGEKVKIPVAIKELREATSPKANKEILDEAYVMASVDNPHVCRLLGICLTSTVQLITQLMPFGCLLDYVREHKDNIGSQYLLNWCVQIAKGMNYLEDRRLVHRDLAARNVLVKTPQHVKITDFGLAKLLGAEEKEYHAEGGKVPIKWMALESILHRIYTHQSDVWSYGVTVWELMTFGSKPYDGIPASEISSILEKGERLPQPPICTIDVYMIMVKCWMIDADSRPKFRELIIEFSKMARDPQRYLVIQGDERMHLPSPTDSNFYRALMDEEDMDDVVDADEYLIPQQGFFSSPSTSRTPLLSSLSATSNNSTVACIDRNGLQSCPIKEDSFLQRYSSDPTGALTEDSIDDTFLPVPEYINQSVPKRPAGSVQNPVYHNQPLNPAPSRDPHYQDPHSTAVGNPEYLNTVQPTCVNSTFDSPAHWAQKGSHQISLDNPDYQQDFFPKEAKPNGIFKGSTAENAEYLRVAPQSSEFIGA

| Structure (SMILES) | IC50 [1] | IC50 [2] | IC50 [3] | IC50 [4] | IC50 [5] | GI50 [6] | GI50 [7] |
| --- | --- | --- | --- | --- | --- | --- | --- |
| C=CC(=O)Nc1cc(-c2c(-c3ccc(N4CCN(C)CC4)cc3)[nH]c3ncc(C(=O)NCc4ccc(CN5CCN(C)CC5)cc4)cc23)ccc1C [Example 122, 3-(3-acrylamido-4-methylphenyl)-N-(4-((4-methylpiperazin-1-yl)methyl)benzyl)-2-(4-(4-methylpiperazin-1-yl)phenyl)-1H-pyrrolo[2,3-b]pyridine-5-carboxamide] | 1000 to 100000 nM | 1 to 100 µM | ≤ 100 nM | ≤ 100 nM | ≤ 100 nM | 1000 to 10000 nM | 1000 to 10000 nM |
| C=CC(=O)Nc1cc(-c2c(-c3ccc(N4CCN(C)CC4)cc3)[nH]c3ncc(C(=O)NCc4cccnc4)cc23)ccc1C [Example 128, 3-(3-acrylamido-4-methylphenyl)-2-(4-(4-methylpiperazin-1-yl)phenyl)-N-(pyridin-3-ylmethyl)-1H-pyrrolo[2,3-b]pyridine-5-carboxamide] | 1000 to 100000 nM | 1 to 100 µM | ≤ 100 nM | ≤ 100 nM | ≤ 100 nM | 1000 to 10000 nM | 1000 to 10000 nM |
| C=CC(=O)Nc1cc(-c2c(-c3ccc(C4CCN(C)CC4)cc3)[nH]c3ncc(C(=O)OC(C)C)cc23)ccc1C [Example 149, isoproyl 3-(3-acrylamido-4-methylphenyl)-2-(4-(1-methylpiperidin-4-yl)phenyl)-1H-pyrrolo[2,3-b]pyridine-5-carboxylate 2,2,2-trifluoroacetate] | 100 to 500 nM | 1 to 100 µM | ≤ 100 nM | ≤ 100 nM | ≤ 100 nM | 100 to 500 nM | 100 to 500 nM |
| C=CC(=O)Nc1cc(-c2c(-c3ccc(N4CCN(C)CC4)cc3)[nH]c3ncc(C(=O)OCCOC)cc23)ccc1C [Example 140, 2-methoxyethyl 3-(3-acrylamido-4-methylphenyl)-2-(4-(4-methylpiperazin-1-yl)phenyl)-1H-pyrrolo[2,3-b]pyridine-5-carboxylate] | 100 to 500 nM | 1 to 100 µM | ≤ 100 nM | ≤ 100 nM | ≤ 100 nM | 100 to 500 nM | 100 to 500 nM |
| C=CC(=O)Nc1cc(-c2c(-c3ccc(N(C)CCN(C)C)cc3)[nH]c3ncc(C(=O)O)cc23)ccc1C [Example 153, 3-(3-acrylamido-4-methylphenyl)-2-(4-((2-(dimethylamino)ethyl)(methyl)amino)phenyl)-1H-pyrrolo[2,3-b]pyridine-5-carboxylic acid 2,2,2-trifluoroacetate] | > 10000 nM | > 10 µM | ≤ 100 nM | ≤ 100 nM | ≤ 100 nM | > 10000 nM | > 10000 nM |
| C=CC(=O)Nc1cc(-c2c(-c3ccc(N4CCN(C)CC4)cc3)[nH]c3ncc(C(=O)NCc4ccc(NC(C)=O)cc4)cc23)ccc1C [Example 132, N-(4-acetamidobenzyl)-3-(3-acrylamido-4-methylphenyl)-2-(4-(4-methylpiperazin-1-yl)phenyl)-1H-pyrrolo[2,3-b]pyridine-5-carboxamide] | > 10000 nM | > 10 µM | 100 to 500 nM | 500 to 1000 nM | ≤ 100 nM | > 10000 nM | > 10000 nM |
| C=CC(=O)Nc1cc(-c2c(-c3ccc(N4CCN(C)CC4)cc3)[nH]c3ncc(C(=O)NCc4cccc(C(N)=O)c4)cc23)ccc1C [Example 133, 3-(3-acrylamido-4-methylphenyl)-N-(3-carbamoylbenzyl)-2-(4-(4-methylpiperazin-1-yl)phenyl)-1H-pyrrolo[2,3-b]pyridine-5-carboxamide] | > 10000 nM | > 10 µM | 100 to 500 nM | 100 to 500 nM | ≤ 100 nM | > 10000 nM | > 10000 nM |
| C=CC(=O)Nc1cc(-c2c(-c3ccc(N4CCN(C)CC4)cc3)[nH]c3ncc(CC(=O)OC4COC4)cc23)ccc1C [Example 197, oxetan-3-yl 2-(3-(3-acrylamido-4-methylphenyl)-2-(4-(4-methylpiperazin-1-yl)phenyl)-1H-pyrrolo[2,3-b]pyridin-5-yl)acetate] | 500 to 1000 nM | 1 to 100 µM | ≤ 100 nM | ≤ 100 nM | ≤ 100 nM | 100 to 500 nM | 1000 to 10000 nM |
